From patent publication US6552176B2, “Salt forms of 6-n-butylamino-6-deoxy-α-L-sorbofuranose” (G. D. Searle & Co., priority 1990, dated 2003)

Tests used:
[1] = Autoclaving of N-butylglucamine reaction solution, HPLC comparison before and after; type: physicochemical; conditions: 5% (weight/volume) solution, 20 mM MgSO4, pH 5.0; 121° C., 30 P.S.I., 30 minutes
Description: The reaction solution can also be sterilized by autoclaving, as described below. A 5% (weight/volume) solution of N-butylglucamine containing 20 mM MgSO4, at pH 5.0, was autoclaved in a 500 ml shake flask with a silicon closure in place. The conditions for autoclaving were 121° C., 30 P.S.I., for 30 minutes. The pH was checked afterwards and found to be 5.0 at room temperature. There was no visible change in the color or the clarity of the solution, an indication that no caramelization or precipitation had occurred. […] Controls (not autoclaved) indicated at least 90% conversion at 48 hours, also. Autoclaving can therefore be used as a method for sterilizing the reaction solution.

[2] = cited from earlier work

stability of solution to autoclaving (HPLC before vs after) [1] | Structure (SMILES) | exposure concentration producing nose and throat irritation ([2]; exposure to as little as) | hazard description per Material Safety Data Sheets ([2]; supplier MSDS (Fisher Scientific))
the same | CCCCNC[C@H](O)[C@@H](O)[C@H](O)[C@H](O)CO [N-butylglucamine] | – | –
– | CCCCN [N-n-butylamine] | 5-10 ppm | toxic and a severe eye, skin and mucous membrane irritant
